According to publication doi:10.1101/177311v3 (biorxiv, 2018):

Target: T1, mycL-Hmg2-GFP (1myc-Hmg2-GFP; Hmg2 transmembrane region) (Saccharomyces cerevisiae, UniProt P12684)
T1 sequence (P12684 1-535 limits assumed): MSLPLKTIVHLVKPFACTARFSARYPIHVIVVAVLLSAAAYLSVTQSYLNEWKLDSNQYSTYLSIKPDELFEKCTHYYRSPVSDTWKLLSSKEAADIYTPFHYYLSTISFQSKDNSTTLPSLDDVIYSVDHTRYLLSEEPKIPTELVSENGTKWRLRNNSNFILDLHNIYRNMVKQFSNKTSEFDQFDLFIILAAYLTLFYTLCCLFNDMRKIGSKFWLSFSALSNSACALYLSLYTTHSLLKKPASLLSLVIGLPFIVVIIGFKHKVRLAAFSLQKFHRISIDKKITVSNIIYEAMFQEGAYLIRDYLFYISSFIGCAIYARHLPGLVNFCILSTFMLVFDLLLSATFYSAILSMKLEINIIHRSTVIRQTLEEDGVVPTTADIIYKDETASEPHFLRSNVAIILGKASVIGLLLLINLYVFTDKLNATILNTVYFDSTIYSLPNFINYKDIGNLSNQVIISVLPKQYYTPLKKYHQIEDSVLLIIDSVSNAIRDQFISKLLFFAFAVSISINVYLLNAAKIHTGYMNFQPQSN
Test: limited trypsin proteolysis of microsomes, anti-myc immunoblot
Format: biochemical

EC50: < 200 nM
SMILES: CC(C)=CCC/C(C)=C/CC/C(C)=C/CC/C(C)=C/COP(=O)(O)OP(=O)(O)O [GGPP, geranylgeranyl pyrophosphate]
